Laboratory results: article PMC3079577 (Nature, 2010)

How the values were obtained:
[1] = molecular target: LeuT^K (Lys 288 Ala LeuT) (Aquifex aeolicus, UniProt O67854, K288A)
[2] = molecular target: T1, wild-type LeuT (Aquifex aeolicus, UniProt O67854); experiment: Isothermal titration calorimetry, Leu binding to wild-type LeuT; details: ITC, 25 °C, pH 7.0
[3] = molecular target: T2, Tyr 108 Phe–LeuT^K (Aquifex aeolicus, UniProt O67854, K288A/Y108F); experiment: Isothermal titration calorimetry, Leu binding to Tyr 108 Phe mutant; details: ITC, 25 °C, pH 7.0
[4] = molecular target: T1, wild-type LeuT; experiment: Equilibrium dialysis, [3H]Leu binding to wild-type LeuT; details: single-site fit, 23 °C, 6 h, listed as [^3H]Leu
[5] = molecular target: T2, Tyr 108 Phe–LeuT^K; experiment: Equilibrium dialysis, [3H]Leu binding to Tyr 108 Phe mutant; details: single-site fit, 23 °C, 6 h, listed as [^3H]Leu
[6] = molecular target: T1, wild-type LeuT; experiment: Scintillation proximity assay, [3H]Leu binding to wild-type LeuT; details: SPA
[7] = molecular target: LeuT Leu 400 Ala mutant (Aquifex aeolicus, UniProt O67854, L400A); experiment: Scintillation proximity assay, [3H]Leu binding to Leu 400 Ala mutant; details: SPA, 400 nM protein, Fig 2b; listed as [^3H]Leu
[8] = molecular target: LeuT Leu 400 Cys mutant (Aquifex aeolicus, UniProt O67854, L400C); experiment: Scintillation proximity assay, [3H]Leu binding to Leu 400 Cys mutant; details: SPA, 400 nM protein, Fig 2b; listed as [^3H]Leu
[9] = test system: LeuT; details: cited from earlier work
[10] = two-site, ordered-binding model fit, parameters not well fitted

For `C[C@H](N)C(=O)O` [Ala, alanine], the Km ([1]; read-out: Km (Michaelis constant), pH 5, 200 mM inward Na+ gradient, 27 °C, no valinomycin) was 0.79 ± 0.06 µM, the “Hill slope nH” value ([1]; steady-state data fitted to the Hill equation) was 0.96±0.03 and the Vmax ([1]; two-site, ordered-binding model fit) was 10,965±308 pmol min^−1 mg^−1. The “apparent dissociation constant KS” value [1, 10] was 6.8 ± 22 nM and the “dissociation coefficient α” value [1, 10] was 114±360.

For `CC(C)C[C@H](N)C(=O)O` [Leu, L-leucine], the ΔH of binding [2] was -3.93 ± 0.02 kcal/mol, the “−TΔS of binding” value [2] was -6.01 ± 0.13 kcal/mol and the “Stoichiometry N (substrate-to-LeuT)” value ([2]; single-site model) was 0.70±0.01 mol/mol LeuT. The ΔH of binding [3] was -1.92 ± 0.03 kcal/mol, the “Stoichiometry N” value ([3]; single-site model) was 0.79±0.01 mol/mol LeuT and the Stoichiometry [4] was 0.73±0.03 mol/mol LeuT. For the same compound, the Stoichiometry [5] was 0.72±0.02 mol/mol LeuT, the Stoichiometry ([6]; 400 nM LeuT (~20 Kd), 25–1,200 nM [3H]Leu, Fig 2b) was “about 0.8 mol/mol LeuT” and the Stoichiometry [7] was “about 0.8 mol/mol LeuT”. For the same compound, the Stoichiometry [8] was “about 0.8 mol/mol LeuT”.

For `CN(C)CCCN1c2ccccc2CCc2ccc(Cl)cc21` [clomipramine], the “Effect of clomipramine on binding of Leu to wild-type LeuT” value ([6]; 10 nM LeuT, 1 mM clomipramine) is given as “no change” and the “Mode of inhibition of LeuT transport” value [9] is given as “non-competitive inhibitor”.
